# According to US9447122B2, “Arginase inhibitors and methods of use thereof” (AstraZeneca AB, priority 2010, dated 2016):
# Where two headings read alike, the source gives them in different places.
# Columns and labels:
# human arginase II = molecular target: T1, human arginase II (Homo sapiens, UniProt P78540); test: Arginase inhibition, QuantiChrom colorimetric urea assay, IC50 converted to Ki; type: biochemical
# T1 sequence (P78540 23-354): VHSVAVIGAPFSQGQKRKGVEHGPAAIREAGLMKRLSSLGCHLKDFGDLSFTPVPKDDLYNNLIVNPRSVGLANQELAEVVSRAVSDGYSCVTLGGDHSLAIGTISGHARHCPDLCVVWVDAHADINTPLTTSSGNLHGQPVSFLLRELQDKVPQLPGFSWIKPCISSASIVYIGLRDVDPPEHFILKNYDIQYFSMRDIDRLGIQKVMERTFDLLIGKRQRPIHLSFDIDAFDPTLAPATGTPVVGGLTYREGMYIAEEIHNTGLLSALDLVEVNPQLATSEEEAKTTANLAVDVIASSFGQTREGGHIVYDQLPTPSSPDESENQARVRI
# Experimental: (§1) For some compounds, their inhibitory potency at pH 7.5 was compared to the inhibitory potency of ABH at pH 7.5.
# (§2) Quantitative determination of arginase activity was performed in a 96-well format by a colorimetric method using the QuantiChrom™ Arginase Assay Kit available from BioAssay Systems (Hayward, Calif., Catalog No. DARG-200) according to the manufacturer's protocol. Modifications were made to reagent quantities to suit the assaying of a highly purified sample.
# (§3) The intensity of the color was directly proportional to the arginase activity in the sample.
# (§4) The rate of urea production was measured in the presence of twelve different concentrations of each potential inhibitor compound. In a typical assay, seven different compounds were tested relative to a control inhibitor (e.g. ABH) against one enzyme (either human ArgI or human ArgII) at a particular pH (either 9.5 or 7.5). The pH of the solution was controlled using an appropriate pH buffering compound at 60 mM concentrations; for example, 60 mM glycine (pH 9.5) or 60 mM HEPES (pH 7.5). The half maximal inhibitory concentration (IC50) was determined by constructing a dose-response curve.
# human arginase I = molecular target: T2, human arginase I (Homo sapiens, UniProt P05089); test: as above; type: biochemical
# T2 sequence (P05089 1-322): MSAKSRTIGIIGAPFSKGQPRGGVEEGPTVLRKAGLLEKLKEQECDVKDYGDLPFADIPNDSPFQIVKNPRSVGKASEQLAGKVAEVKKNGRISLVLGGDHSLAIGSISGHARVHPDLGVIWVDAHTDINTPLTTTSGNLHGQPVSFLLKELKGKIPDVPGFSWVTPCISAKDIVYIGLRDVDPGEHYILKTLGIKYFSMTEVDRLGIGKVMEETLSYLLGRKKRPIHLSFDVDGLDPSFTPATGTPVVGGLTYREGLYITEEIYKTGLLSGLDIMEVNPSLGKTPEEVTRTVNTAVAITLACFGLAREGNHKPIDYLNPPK
# Experimental: as §1, §2, §3, §4
# [1] = Table 3, pH 7.5, read-out: human Arginase II pH 7.5, Ki assigned value
# [2] = Table 3, pH 9.5, read-out: human Arginase II pH 9.5, Ki assigned value
# [3] = Table 3, pH 7.5, read-out: human Arginase I pH 7.5, Ki assigned value
# [4] = Table 3, pH 9.5, read-out: human Arginase I pH 9.5, Ki assigned value
# [5] = Table 2, pH 7.5, read-out: human arginase II pH 7.5, Ki assigned value
# [6] = Table 2, pH 9.5, read-out: human arginase II pH 9.5, Ki assigned value
# [7] = Table 2, pH 7.5, read-out: human arginase I pH 7.5, Ki assigned value
# [8] = Table 2, pH 9.5, read-out: human arginase I pH 9.5, Ki assigned value
Structure (SMILES),Ki (human arginase II; [1]) [nM],Ki (human arginase II; [2]) [nM],Ki (human arginase I; [3]) [nM],Ki (human arginase I; [4]) [nM],Ki (human arginase II; [5]) [nM],Ki (human arginase II; [6]) [nM],Ki (human arginase I; [7]) [nM],Ki (human arginase I; [8]) [nM]
NC(CCCCB(O)O)(CCCN1CCN(Cc2cccc(F)c2F)CC1)C(=O)O (stereo not shown) [Example 7],11 to 50,51 to 100,< 10,11 to 50,,,,
NC(CCCCB(O)O)(CCCN1CCN(Cc2cccc(C(F)(F)F)c2)CC1)C(=O)O (stereo not shown) [Example 9],11 to 50,11 to 50,< 10,51 to 100,,,,
NC(CCCCB(O)O)(CCCN1CCN(Cc2ccc(F)cc2)CC1)C(=O)O (stereo not shown) [Example 11],,,,,11 to 50,11 to 50,< 10,11 to 50
NC(CCCCB(O)O)(CCCN1CCN(CCc2ccccc2)CC1)C(=O)O (stereo not shown) [Example 14],< 10,11 to 50,< 10,11 to 50,,,,
NC(CCCCB(O)O)(CCN1CCN(Cc2ccc(Cl)c(Cl)c2)CC1)C(=O)O (stereo not shown) [Example 15],> 400,51 to 100,101 to 250,101 to 250,,,,
NC(CCCCB(O)O)(CCCN1CCN(c2ccc(Cl)c(Cl)c2)CC1)C(=O)O (stereo not shown) [Example 16],51 to 100,11 to 50,11 to 50,51 to 100,,,,
NC(CCCCB(O)O)(CCCN1CCCCC1c1ccc(F)cc1)C(=O)O (stereo not shown) [Example 17],,,,,101 to 250,11 to 50,< 10,11 to 50
NC(CCCCB(O)O)(CCC1CCCCN1Cc1cc(F)cc(F)c1)C(=O)O (stereo not shown) [Example 20],101 to 250,101 to 250,11 to 50,11 to 50,,,,
NC(CCCCB(O)O)(CCC1CCCCN1Cc1ccc(F)c(F)c1)C(=O)O (stereo not shown) [Example 21],51 to 100,51 to 100,11 to 50,11 to 50,,,,
"NC(CCCCB(O)O)(CCCN1CCCC(c2ccccc2)C1)C(=O)O (stereo not shown) [Example 26, 2-amino-6-borono-2-(3-(3-phenylpiperidin-1-yl)propyl)hexanoic acid]",< 10,11 to 50,< 10,11 to 50,,,,
NC(CCCCB(O)O)(CCCN1CCC(Cc2ccc(F)c(F)c2)CC1)C(=O)O (stereo not shown) [Example 28],,,,,51 to 100,< 10,< 10,< 10
NC(CCCCB(O)O)(CCCN1CCC2(CC1)C(=O)NCN2c1ccccc1)C(=O)O (stereo not shown) [Example 31],< 10,51 to 100,< 10,11 to 50,,,,
NC(CCCCB(O)O)(CCCN1CCC(Oc2ccc(C(F)(F)F)cc2)CC1)C(=O)O (stereo not shown) [Example 34],< 10,11 to 50,< 10,< 10,,,,
COc1ccc(C2CCN(CCCC(N)(CCCCB(O)O)C(=O)O)CC2)cc1 (stereo not shown) [Example 37],< 10,11 to 50,< 10,< 10,,,,
NC(CCCCB(O)O)(CCCN1CCC(O)(Cc2ccccc2)CC1)C(=O)O (stereo not shown) [Example 39],< 10,11 to 50,< 10,< 10,,,,
NC(CCCCB(O)O)(CCCN1CCC(O)(c2ccc(Cl)cc2)CC1)C(=O)O (stereo not shown) [Example 40],< 10,11 to 50,< 10,< 10,,,,
NC(CCCCB(O)O)(CCCN1CCN(c2ccc(C(F)(F)F)cn2)CC1)C(=O)O (stereo not shown) [Example 41],< 10,11 to 50,< 10,11 to 50,,,,

Structure (SMILES),Ki (human arginase II; [1]) [nM],Ki (human arginase II; [2]) [nM],Ki (human arginase I; [3]) [nM],Ki (human arginase I; [4]) [nM],Ki (human arginase II; [5]) [nM],Ki (human arginase II; [6]) [nM],Ki (human arginase I; [7]) [nM],Ki (human arginase I; [8]) [nM]
NC(CCCCB(O)O)(CCCN1CCC(NC(=O)c2ccccc2)CC1)C(=O)O (stereo not shown) [Example 44],< 10,11 to 50,< 10,11 to 50,,,,
NC(CCCCB(O)O)(CCCN1CCc2ccccc2C1)C(=O)O (stereo not shown) [Example 45],< 10,11 to 50,< 10,11 to 50,,,,
CN1CCN(CCCC(N)(CCCCB(O)O)C(=O)O)C(c2ccccc2)C1 (stereo not shown) [Example 46],11 to 50,< 10,11 to 50,11 to 50,,,,
NC(CCCCB(O)O)(CCCN1CCCC1c1ccccc1C(F)(F)F)C(=O)O (stereo not shown) [Example 51],11 to 50,101 to 250,11 to 50,51 to 100,,,,
NC(CCCCB(O)O)(CCCN1CCCC1c1ccc(-c2ccccc2)cc1)C(=O)O (stereo not shown) [Example 54],11 to 50,51 to 100,11 to 50,11 to 50,,,,
NC(CCCCB(O)O)(CCCN1CCCC1)C(=O)O (stereo not shown) [Example 56],51 to 100,101 to 250,11 to 50,11 to 50,,,,
NC(CCCCB(O)O)(CCCN1CCC1)C(=O)O (stereo not shown) [Example 57],11 to 50,51 to 100,< 10,11 to 50,,,,
NC(CCCCB(O)O)(CCCN1CC(c2ccccc2)C1)C(=O)O (stereo not shown) [Example 58],11 to 50,11 to 50,< 10,11 to 50,,,,
NC(CCCCB(O)O)(CCCN1CC(NC(=O)Nc2ccc(Cl)c(Cl)c2)C1)C(=O)O (stereo not shown) [Example 60],< 10,11 to 50,< 10,< 10,,,,
NC(CCCCB(O)O)(CCCN1CCOCC1)C(=O)O (stereo not shown) [Example 64],11 to 50,51 to 100,< 10,11 to 50,,,,
NC(CCCCB(O)O)(CCCN1CCSCC1)C(=O)O (stereo not shown) [Example 65],11 to 50,> 400,11 to 50,51 to 100,,,,
NC(CCCCB(O)O)(CCCNCCc1ccccc1)C(=O)O (stereo not shown) [Example 67],< 10,< 10,< 10,< 10,,,,
CN(CCCC(N)(CCCCB(O)O)C(=O)O)CCc1ccccc1 (stereo not shown) [Example 68],11 to 50,11 to 50,11 to 50,11 to 50,,,,
NC(CCCCB(O)O)(CCCNC1CCCCC1)C(=O)O (stereo not shown) [Example 77],< 10,11 to 50,< 10,< 10,,,,
CN(CCCC(N)(CCCCB(O)O)C(=O)O)C1CCCCC1 (stereo not shown) [Example 78],51 to 100,11 to 50,11 to 50,11 to 50,,,,
COCCN(C)CCCC(N)(CCCCB(O)O)C(=O)O (stereo not shown) [Example 85],11 to 50,101 to 250,11 to 50,11 to 50,,,,
CN(C)CCN(C)CCCC(N)(CCCCB(O)O)C(=O)O (stereo not shown) [Example 88],51 to 100,51 to 100,51 to 100,11 to 50,,,,
